According to PubChem BioAssay AID488790 (NMMLSC, 2010):

System: S. cerevisiae AGP1-GFP strain, flow cytometry fluorescence, 3 h
Assay: analog potency on AGP1-GFP expression in yeast, SAR follow-up, cell-based, flow cytometry, S. cerevisiae, cherry pick 3 (AID 488790)

EC50: 4.59 µM
SMILES: CCOC(=O)CS(=O)(=O)c1nc(-c2ccccc2)cc(C(F)(F)F)n1
